{"source": "patent US20040138272A1", "about": "“1,4-Substituted cyclohexane derivatives” (priority 2002, published 2004)", "key": {"[1]": {"target": "glycogen synthatase kinase 3 beta (GSKB) (Homo sapiens, UniProt P49841)", "sequence (P49841 whole entry)": "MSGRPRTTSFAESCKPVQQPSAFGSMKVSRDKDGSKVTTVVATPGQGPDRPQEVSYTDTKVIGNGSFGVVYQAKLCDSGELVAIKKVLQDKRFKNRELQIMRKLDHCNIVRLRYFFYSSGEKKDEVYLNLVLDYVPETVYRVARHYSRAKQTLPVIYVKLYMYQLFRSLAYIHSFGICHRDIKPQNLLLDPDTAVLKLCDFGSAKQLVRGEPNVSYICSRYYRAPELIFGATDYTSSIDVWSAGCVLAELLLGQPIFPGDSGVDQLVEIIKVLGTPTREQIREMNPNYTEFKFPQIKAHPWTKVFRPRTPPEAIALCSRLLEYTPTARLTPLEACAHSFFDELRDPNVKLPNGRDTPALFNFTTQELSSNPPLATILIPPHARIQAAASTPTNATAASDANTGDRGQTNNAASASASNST", "assay": "GSK B kinase activity of compounds (FIG. 10)", "type": "biochemical", "details": "10 uM"}, "PRK2": {"target": "PRK2 (Homo sapiens, UniProt Q16513)", "sequence (Q16513 whole entry)": "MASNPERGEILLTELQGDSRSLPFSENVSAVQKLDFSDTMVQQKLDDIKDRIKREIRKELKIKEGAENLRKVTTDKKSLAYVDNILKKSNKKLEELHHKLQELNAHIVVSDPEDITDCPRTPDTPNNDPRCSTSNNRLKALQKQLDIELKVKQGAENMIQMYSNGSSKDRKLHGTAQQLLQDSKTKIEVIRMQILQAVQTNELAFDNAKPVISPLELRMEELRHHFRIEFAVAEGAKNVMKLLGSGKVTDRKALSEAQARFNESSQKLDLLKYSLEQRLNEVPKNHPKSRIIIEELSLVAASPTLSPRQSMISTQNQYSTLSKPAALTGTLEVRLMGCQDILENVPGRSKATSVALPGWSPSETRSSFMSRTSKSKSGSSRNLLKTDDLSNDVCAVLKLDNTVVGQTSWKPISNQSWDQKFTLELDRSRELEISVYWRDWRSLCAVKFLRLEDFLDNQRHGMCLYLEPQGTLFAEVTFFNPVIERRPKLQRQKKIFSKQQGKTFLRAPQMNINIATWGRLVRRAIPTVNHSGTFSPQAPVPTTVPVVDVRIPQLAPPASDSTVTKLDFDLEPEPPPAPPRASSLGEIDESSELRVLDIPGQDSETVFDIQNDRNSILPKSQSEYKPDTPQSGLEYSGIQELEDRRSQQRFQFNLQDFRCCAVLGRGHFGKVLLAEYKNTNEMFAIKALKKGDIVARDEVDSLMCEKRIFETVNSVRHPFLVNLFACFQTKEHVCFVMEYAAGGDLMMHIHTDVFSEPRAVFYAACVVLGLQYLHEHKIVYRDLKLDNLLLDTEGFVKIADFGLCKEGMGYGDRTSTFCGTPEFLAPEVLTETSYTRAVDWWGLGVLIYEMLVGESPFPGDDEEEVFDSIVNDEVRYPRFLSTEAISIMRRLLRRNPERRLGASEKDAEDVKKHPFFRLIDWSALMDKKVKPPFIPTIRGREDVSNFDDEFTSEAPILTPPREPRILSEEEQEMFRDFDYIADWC", "details": "cited from earlier work"}, "MSK1": {"target": "MSK1 (Homo sapiens, UniProt O75582)", "sequence (O75582 whole entry, species assumed)": "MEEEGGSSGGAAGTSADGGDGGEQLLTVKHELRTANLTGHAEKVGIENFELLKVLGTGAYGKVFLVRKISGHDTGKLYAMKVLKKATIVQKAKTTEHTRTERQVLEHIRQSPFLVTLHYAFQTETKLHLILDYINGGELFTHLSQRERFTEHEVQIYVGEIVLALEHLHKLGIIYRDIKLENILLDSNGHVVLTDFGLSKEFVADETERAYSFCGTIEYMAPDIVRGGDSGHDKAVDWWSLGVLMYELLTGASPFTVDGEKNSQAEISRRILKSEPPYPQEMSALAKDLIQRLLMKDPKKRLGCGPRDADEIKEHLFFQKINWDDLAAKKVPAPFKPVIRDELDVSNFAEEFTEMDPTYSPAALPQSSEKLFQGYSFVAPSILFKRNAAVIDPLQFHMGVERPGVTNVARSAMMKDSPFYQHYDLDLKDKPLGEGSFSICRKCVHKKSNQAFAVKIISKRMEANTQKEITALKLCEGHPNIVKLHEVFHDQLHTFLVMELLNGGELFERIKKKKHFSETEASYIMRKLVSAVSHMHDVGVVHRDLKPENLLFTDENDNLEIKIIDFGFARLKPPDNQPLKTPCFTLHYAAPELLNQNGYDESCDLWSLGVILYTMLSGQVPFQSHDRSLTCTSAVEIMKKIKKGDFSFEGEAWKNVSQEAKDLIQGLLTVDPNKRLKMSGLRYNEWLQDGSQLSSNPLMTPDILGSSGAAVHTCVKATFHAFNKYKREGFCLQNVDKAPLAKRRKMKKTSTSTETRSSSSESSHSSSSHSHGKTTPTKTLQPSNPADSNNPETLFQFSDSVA", "details": "cited from earlier work"}, "MAPKAP-K1b": {"target": "MAPKAP-K1b (Oryctolagus cuniculus, UniProt A0A5F9C4L9)", "sequence (A0A5F9C4L9 1-740)": "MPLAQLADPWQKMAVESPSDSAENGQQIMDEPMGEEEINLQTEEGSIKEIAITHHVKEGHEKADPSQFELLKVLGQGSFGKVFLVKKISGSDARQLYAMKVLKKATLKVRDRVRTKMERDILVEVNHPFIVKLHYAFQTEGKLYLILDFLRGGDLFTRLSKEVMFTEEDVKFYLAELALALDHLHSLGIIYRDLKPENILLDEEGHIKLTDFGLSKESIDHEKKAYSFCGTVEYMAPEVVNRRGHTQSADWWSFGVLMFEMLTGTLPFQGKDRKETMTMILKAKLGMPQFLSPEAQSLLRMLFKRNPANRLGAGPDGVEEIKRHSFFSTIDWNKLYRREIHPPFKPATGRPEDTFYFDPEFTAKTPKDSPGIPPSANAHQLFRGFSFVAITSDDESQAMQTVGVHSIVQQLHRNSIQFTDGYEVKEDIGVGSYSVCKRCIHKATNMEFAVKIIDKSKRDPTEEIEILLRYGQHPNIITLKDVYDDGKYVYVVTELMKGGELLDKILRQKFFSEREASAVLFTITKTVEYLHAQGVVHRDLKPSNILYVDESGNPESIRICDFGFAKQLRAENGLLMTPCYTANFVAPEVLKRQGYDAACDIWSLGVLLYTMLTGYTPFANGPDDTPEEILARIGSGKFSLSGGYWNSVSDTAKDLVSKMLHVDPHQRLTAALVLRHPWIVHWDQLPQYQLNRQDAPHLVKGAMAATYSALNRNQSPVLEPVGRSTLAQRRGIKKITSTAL", "details": "cited from earlier work"}, "PHK": {"tested_on": "PHK", "details": "cited from earlier work"}, "[2]": {"details": "rat, in vivo, po, 30 mg/kg; cited from earlier work"}, "[3]": {"details": "cited from earlier work"}, "[4]": {"tested_on": "NG108-15 neuronal cell line", "assay": "Rapid bioassay of neurite growth in NG108-15 cells", "type": "cell-based", "details": "NG108 cells, 3.1 to 31 μM", "description": "When neurons are placed on inhibitory substrates in tissue culture, the neurons remain rounded. When an effective Rho kinase inhibitor is added to the neurons, the neurons are able to grow neurites on myelin substrates. The time that it takes for neurons to grow neurites after the addition of a Rho kinase inhibitor is about the same as the time that it takes for neurons to grow neurites if the neurons had been plated on growth permissive substrate such as laminin or polylysine, which time is typically 1 to 2 days in cell culture. An assessment of resulting neurite growth can be scored by visual means. If needed, a quantitative assessment of neurite growth can be performed. This involves measuring after a time such as 1 to 2 days the neurite length a) in control cultures where neurons are plated on myelin substrates and left untreated with Rho kinase inhibitor for such time, b) in positive control cultures, wherein for example neurons are plated on polylysine but left untreated with Rho kinase inhibitor for such time, and c) in cultures analogous to a) and b) that are treated with different concentrations of a Rho kinase inhibitor for such time. […] In this assay, NG108 cells are plated on plastic in the presence or absence of the test substance (a Rho kinase inhibitor). […] The relative efficacy can be assessed by fixing the cultures 5 hours after plating, and counting the number of cells that have grown neurites.\nA rapid bioassay is used to determine the effect of a test compounds on the stimulation of neurite growth in vitro. A neuronal cell line, NG108-15 (ATCC HB-12317), is maintained in culture in Dulbecco's minimal essential medium (DMEM) supplemented with 10% fetal bovine serum, Penicillin/Streptomycin and HAT supplement (Gibco/BRL). For the bioassay, the cells are collected by trypsinisation and ressuspended in DMEM supplemented with 5% FBS, Penicillin/Streptomycin, HAT supplement and 0.25 mg/ml cAMP, adjusted to 1.0×10^4 cells/ml. The cells are plated into wells of a 96 well plate at 100 μls (1000 cells)/well. Cells are incubated 4 h at 37° C. and 5% CO2 in presence of small molecules or cethrin at a concentration of 1000 cells per well of a 96-wells plate in a final volume of 100 ul.\nAfter incubation, cells are fixed by adding […] 16% PFA and 5.4 μls 2.5% glutaraldehyde to the media in each well. The wells are stained with cresyl violet 0.05% , 100 μls/well for 15 min. Cells with neurites (length≧one cell body) are counted using an inverted light microscope. The % neurite outgrowth is determined by calculating the number of cells with neurites over the total number of counted cells."}, "[5]": {"tested_on": "PC12 cells on MAG substrates", "assay": "Bioassay of PC12 neurite growth on growth inhibitory myelin-associated glycoprotein (MAG) substrates", "type": "cell-based", "details": "Dihydrochloride; for neurite outgrowth on inhibitory MAG substrates (FIG. 4): PC12 cells, 0.31, 3.1 or 31 uM", "description": "PC-12 cells (ATCC CRL-1721) typically extend neurites in response to NGF, but when plated on inhibitory substrates, this outgrowth is inhibited and the cells remain round. We tested the ability of the new compound to grow neurites when plated on inhibitory substrates.\nWe used PC12 cells obtained from the American Type Culture Collection. PC12 cells were grown in Dulbecco's modified eagle's medium (DMEM) with 10% horse serum and 5% fetal bovine serum. To test compounds for the ability to overcome growth inhibition, PC12 cells were collected by detaching with trypsin-EDTA (0.05%), then resuspended in DMEM, 1% FBS, and 50 ng/ml nerve growth factor before plating on MAG substrates. MAG used for substrates was purified from myelin after extraction in 1% octylglucoside and separation by ion exchange chromatography (McKerracher et al. 1994, Neuron 13:805-811). Test substrates were prepared as uniform substrates in 96-well plates by drying overnight in the laminar flow hood (Nalge Nunc, Naperville, Ill.). Plates were precoated with polylysine (100 μg/ml) for 3 hours at 37° C., then washed and dried approx. 1 hour. MAG was prepared as a substrate by drying down 8 μg of protein overnight. After plating on the MAG substrate, the cells were grown at 37 C. for two days in the presence or absence of test compound (BA1003, BA1016, BA1017) to allow neurite growth. Polylysine substrates were used as a positive control. Quantitative analysis of neurite outgrowth was with the aid of Northern Eclipse software (Empix Imaging, Mississauga, Ontario). Data analysis and statistics were with Microsoft Excel.\nReferring to FIG. 4 there is shown a graph illustrative of experiments performed in triplicate testing the ability of BA-1003, BA-1016 and BA-1017 to overcome growth inhibition by MAG. PC12 cells were plated on MAG substrates alone (MAG) or MAG substrates in the presence of 0.31 uM, 3.1 um or 31 um concentrations of the test compound. The numbers of neurons that grew neurites were scored, and are shown as the percentage of neurite growth."}, "ROCK II": {"target": "T1, ROCK II (Rattus norvegicus, UniProt Q62868)", "T1 construct": "purchased Upstate (Lake Placid, N.Y.)", "T1 sequence (Q62868 11-550 limits assumed)": "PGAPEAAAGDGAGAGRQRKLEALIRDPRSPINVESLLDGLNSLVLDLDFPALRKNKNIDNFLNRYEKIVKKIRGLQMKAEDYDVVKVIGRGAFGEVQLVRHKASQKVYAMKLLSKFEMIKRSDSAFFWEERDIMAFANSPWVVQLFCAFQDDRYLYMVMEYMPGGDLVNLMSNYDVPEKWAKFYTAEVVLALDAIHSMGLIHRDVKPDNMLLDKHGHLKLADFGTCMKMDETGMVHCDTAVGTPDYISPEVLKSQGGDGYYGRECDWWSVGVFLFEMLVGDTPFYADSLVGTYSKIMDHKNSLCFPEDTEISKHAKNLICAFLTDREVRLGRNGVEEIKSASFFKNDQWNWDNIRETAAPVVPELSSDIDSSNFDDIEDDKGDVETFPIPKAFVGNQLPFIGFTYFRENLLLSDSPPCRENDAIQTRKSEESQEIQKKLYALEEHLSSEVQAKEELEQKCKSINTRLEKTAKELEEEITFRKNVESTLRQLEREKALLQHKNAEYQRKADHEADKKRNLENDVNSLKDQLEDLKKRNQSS", "assay": "ROCK II kinase assay with [γ-32P] ATP and myelin basic protein substrate (FIG. 3)", "type": "biochemical", "details": "100 μM ATP, 30 min at 30° C.", "from_the_text": "The ability of compounds to inhibit ROK activity may be tested in a cell-free assay system using recombinant ROK, radiaoactive ATP, and Myelin basic Protein (MBP). MBP is a highly phosphorylated protein, is inexpensive to buy in purified form, is phosphorylated by ROK, and is used as the assay substrate for phosphorylation. Recombinant ROK has been prepared from a number of sources. Overexpression in mammalian cells provides a convenient, easily renewed source of ROK activity. Measurement of Rho-associated kinase (ROK) activity is important to determine the potency of novel inhibitors. MBP is a substrate for ROK and a number of other protein kinases, making it useful both to quantitate ROK activity and to indicate the potency and specificity of novel inhibitors for ROK. […]\nROCK II was assayed in 20 mM MOPS, pH 7.2, 25 mM β-glycerophosphate, 5 mM EGTA, 1 mM sodium orthovanadate, 1 mM dithiothreitol with dephosphorylated myelin basic protein (MBP, 0.2 mg/ml) as substrate with or without BA-1016 or BA-1017. […] Assays were initiated by adding Mg^2+/ATP and terminated by spotting 40 μl of each reaction onto phosphocellulose paper (P81 paper, Whatman), followed by washes in 0.75% phosphoric acid to remove ATP and then dried, put in scintillation cocktail and counted to measure ^32P incorporation. Radioactivity is measured using a scintillation counter. […]"}}, "note": "“Also recorded” adds a separate entry of the source. Where two headings read alike, the source gives them in different places."}
{"smiles": "C=CC[C@@H](NC)[C@H]1CC[C@H](C(=O)Nc2ccncc2)CC1.Cl.Cl", "note": "(relative stereo) [BA-1028, (R,S)-trans-4-[(N′-methyl)-but-3′-en-1′-amino]-N-(4″-pyridyl)cyclohexane Carboxamide Dihydrochloride]", "values": [{"measurement": "activity towards GSKB (FIG. 10)", "setting": "[1]", "result": "can exert activity"}]}
{"smiles": "C=CC[C@@H](NCc1ccccc1)[C@H]1CC[C@H](C(=O)Nc2ccncc2)CC1.Cl.Cl", "note": "(relative stereo) [BA-1029, (R,S)-trans-4-[(N′-benzyl)-but-3′-en-1′-amino]-N-(4″-pyridyl)cyclohexane Carboxamide Dihydrochloride]", "values": [{"measurement": "activity towards GSKB (FIG. 10)", "setting": "[1]", "result": "can exert activity"}]}
{"smiles": "C[C@@H](N)[C@H]1CC[C@H](C(=O)Nc2ccncc2)CC1.Cl.Cl", "note": "(relative stereo) [Y-27632, (R)-trans-4-(Ethan-1′-amino)-N-(4″-pyridyl)cyclohexane Carboxamide Dihydrochloride]", "values": [{"measurement": "inhibition of PRK2", "setting": "PRK2", "result": "inhibits"}, {"measurement": "inhibition of MSK1", "setting": "MSK1", "result": "inhibits"}, {"measurement": "inhibition of MAPKAP-K1b", "setting": "MAPKAP-K1b", "result": "inhibits"}, {"measurement": "inhibition of PHK", "setting": "PHK", "result": "inhibits"}, {"measurement": "toxicity", "setting": "[2]", "result": "not toxic"}, {"measurement": "blood pressure", "setting": "[3]; hypertensive rats", "result": "reduces blood pressure"}, {"measurement": "blood pressure", "setting": "[3]; normal rats", "result": "does not affect blood pressure"}]}
{"smiles": "C=CC[C@@H](N)[C@H]1CC[C@H](C(=O)Nc2ccncc2)CC1.Cl.Cl", "note": "(stereo in doubt) [BA-1003]", "values": [{"measurement": "neurite outgrowth (FIG. 2)", "setting": "[4]", "result": "promote neurite outgrowth"}, {"measurement": "neurite outgrowth on inhibitory MAG substrates (FIG. 4)", "setting": "[5]", "result": "can promote neurite outgrowth; also recorded: able to overcome growth inhibition by MAG"}]}
{"smiles": "C=CC[C@H](N)[C@H]1CC[C@H](C(=O)Nc2ccncc2)CC1.Cl.Cl", "note": "(stereo in doubt) [BA-1017]", "values": [{"measurement": "neurite outgrowth (FIG. 2)", "setting": "[4]", "result": "promote neurite outgrowth"}, {"measurement": "inhibition of ROCKII activity (FIG. 3)", "setting": "ROCK II", "result": "inhibition of ROCKII activity"}, {"measurement": "neurite outgrowth on MAG substrates at the lowest concentration tested", "setting": "[5]; PC12 cells, 0.31 uM", "result": "better neurite outgrowth; also recorded: effective"}, {"measurement": "neurite outgrowth on inhibitory MAG substrates (FIG. 4)", "setting": "[5]", "result": "can promote neurite outgrowth; also recorded: able to overcome growth inhibition by MAG"}]}
{"smiles": "Cl.Cl.O=C(Nc1ccncc1)[C@H]1CC[C@H](NNCC(c2ccccc2)c2ccccc2)CC1", "note": "[BA-1034, trans-4-{N′-[2′,2′-(Diphenyl)ethyl]hydrazino}-N-(4′″-pyridyl)cyclohexane Carboxamide Dihydrochloride]", "values": [{"measurement": "activity towards GSKB (FIG. 10)", "setting": "[1]", "result": "can exert activity"}]}
{"smiles": "Cl.Cl.O=C(Nc1ccncc1)[C@H]1CC[C@H](NNCc2ccc(OCc3ccccc3)cc2)CC1", "note": "[BA-1035, trans-4-{N′-[4′-(Benzyloxy)benzyl]hydrazino}-N-(4′″-pyridyl)cyclohexane Carboxamide Dihydrochloride]", "values": [{"measurement": "activity towards GSKB (FIG. 10)", "setting": "[1]", "result": "can exert activity"}]}
{"smiles": "Cl.Cl.O=C(Nc1ccncc1)[C@H]1CC[C@H](NNCC2CCCCC2)CC1", "note": "[BA-1036, trans-4-{N′-[(Cyclohexyl)methyl]hydrazino}-N-(4′″-pyridyl)cyclohexane Carboxamide Dihydrochloride]", "values": [{"measurement": "activity towards GSKB (FIG. 10)", "setting": "[1]", "result": "can exert activity"}]}
{"smiles": "Cl.Cl.O=C(Nc1ccncc1)[C@H]1CC[C@H](NNC/C=C/c2ccccc2)CC1", "note": "[BA-1038, 1,4-trans-2′,3′-trans-4-{N′-[3′-(Phenyl)prop-2′-enyl]hydrazino}-N-(4′″-pyridyl)cyclohexane Carboxamide Dihydrochloride]", "values": [{"measurement": "activity towards GSKB (FIG. 10)", "setting": "[1]", "result": "can exert activity"}]}
